In data set [1] the test system is CYP2B6. The conditions noted are these: primary human hepatocytes, via PXR activation; stated as typical behaviour; cited from earlier work.
Data set [2] deals with CYP2B6. The data set is described as follows: P450 induction assay in HepaRG cells (CYP2B6 activity, hydroxybupropion formation from bupropion). It is filed as cell-based. The conditions noted are these: HepaRG cells cultured without matrix overlay; 10 μM RIF, 72 hours of treatment; induction is seen only when the cells are overlayed.
Procedure: Cryopreserved HepaRG™ cells (Life Technologies Corporation) are terminally differentiated prior to cryopreservation. Frozen HepaRG™ cells were thawed and plated per manufacturer's instructions and placed into 37° C., 5% CO2 cell culture incubator. 24 hours after plating, media was aspirated and cells were overlayed using 0.35 mg/mL Geltrex® matrix in 4° C. in 770 media. 72 hours after plating, media was aspirated and media was exchanged with either 740 or 750 media containing 0.1% DMSO, 50 μM omeprazole (OMP), 1 mM Phenobarbital (PB), or 10 μM Rifampicin (RIF). 740 and 750 media containing vehicle or prototypical inducers was replaced daily for a total of 72 hours of treatment. Day 6 of culture (24 hours after last dosing), P450 activity was evaluated and total RNA was isolated. P450 activity was evaluated utilizing in situ incubations of prototypical substrates (100 μM phenacetin, 500 bupropion, 10 μM midazolam, or 200 μM testosterone) in Hanks' Balanced Salts Solution (HBSS) for 1 hour at 37° C. shaking on microplate shaker @600 rpm. After in situ incubations were completed, incubation matrix (supernatant/HBSS) was removed from cell monolayer and metabolite formation was evaluated by LC/MS-MS analysis. Microphotographs were taken daily to monitor morphological changes.

Take `CO[C@H]1/C=C/O[C@@]2(C)Oc3c(C)c(O)c4c(O)c(c(/C=N/N5CCN(C)CC5)c(O)c4c3C2=O)NC(=O)/C(C)=C\C=C\[C@H](C)[C@H](O)[C@@H](C)[C@@H](O)[C@@H](C)[C@H](OC(C)=O)[C@@H]1C` [RIF, Rifampicin]: the “induction of CYP2B6 enzyme activity” value in the data set with CYP2B6 [1] was “induces”. Besides, the “induction of CYP2B6” value with CYP2B6 [2] is reported as “does not induce”.

These data come from patent US20160168537A1, “DIFFERENTIATED CELLULAR COMPOSITIONS AND METHODS FOR THEIR PREPARATION AND USE” (LIFE TECHNOLOGIES CORPORATION, priority 2013, published 2016).
